Test results as given in publication PMC9609070 (ACS Omega, 2022).

Columns and labels:
Solid-phase analyses = format: physicochemical; conditions: after saturation in neat water, x1=0.50 mixture and neat NMP
[1] = Preferential solvation analysis by inverse Kirkwood–Buff integrals; format: physicochemical; conditions: NMP+water, T=298.15 K

100 δx1,3 (preferential solvation parameter by NMP) ([1]; x1=0.00): 0.00
D (derivative of Gibbs energy of transfer vs x1) ([1]; x1=0.00): –71.31 kJ·mol^–1
G1,3 (Kirkwood–Buff integral) ([1]; x1=0.00): –702.7 cm^3·mol^–1
G2,3 (Kirkwood–Buff integral) ([1]; x1=0.00): –182.2 cm^3·mol^–1
100 δx1,3 (preferential solvation parameter by NMP) ([1]; x1=0.05): –3.21
D (derivative of Gibbs energy of transfer vs x1) ([1]; x1=0.05): –64.29 kJ·mol^–1
G1,3 (Kirkwood–Buff integral) ([1]; x1=0.05): –669.9 cm^3·mol^–1
G2,3 (Kirkwood–Buff integral) ([1]; x1=0.05): –311.3 cm^3·mol^–1
δx1,3 (preferential solvation parameter by NMP) ([1]; x1=0.05): −3.21 × 10^–2
100 δx1,3 (preferential solvation parameter by NMP) ([1]; x1=0.10): –3.19
D (derivative of Gibbs energy of transfer vs x1) ([1]; x1=0.10): –57.63 kJ·mol^–1
G1,3 (Kirkwood–Buff integral) ([1]; x1=0.10): –596.6 cm^3·mol^–1
G2,3 (Kirkwood–Buff integral) ([1]; x1=0.10): –417.0 cm^3·mol^–1
δx1,3 (preferential solvation parameter by NMP) ([1]; x1=0.10): −3.19 × 10^–2
100 δx1,3 (preferential solvation parameter by NMP) ([1]; x1=0.15): –0.64
D (derivative of Gibbs energy of transfer vs x1) ([1]; x1=0.15): –51.33 kJ·mol^–1
G1,3 (Kirkwood–Buff integral) ([1]; x1=0.15): –513.2 cm^3·mol^–1
G2,3 (Kirkwood–Buff integral) ([1]; x1=0.15): –484.4 cm^3·mol^–1
100 δx1,3 (preferential solvation parameter by NMP) ([1]; x1=0.20): 1.92
D (derivative of Gibbs energy of transfer vs x1) ([1]; x1=0.20): –45.42 kJ·mol^–1
G1,3 (Kirkwood–Buff integral) ([1]; x1=0.20): –438.6 cm^3·mol^–1
G2,3 (Kirkwood–Buff integral) ([1]; x1=0.20): –519.2 cm^3·mol^–1
100 δx1,3 (preferential solvation parameter by NMP) ([1]; x1=0.25): 3.70
D (derivative of Gibbs energy of transfer vs x1) ([1]; x1=0.25): –39.89 kJ·mol^–1
G1,3 (Kirkwood–Buff integral) ([1]; x1=0.25): –378.9 cm^3·mol^–1
G2,3 (Kirkwood–Buff integral) ([1]; x1=0.25): –532.6 cm^3·mol^–1
100 δx1,3 (preferential solvation parameter by NMP) ([1]; x1=0.30): 4.75
D (derivative of Gibbs energy of transfer vs x1) ([1]; x1=0.30): –34.76 kJ·mol^–1
G1,3 (Kirkwood–Buff integral) ([1]; x1=0.30): –332.9 cm^3·mol^–1
G2,3 (Kirkwood–Buff integral) ([1]; x1=0.30): –533.5 cm^3·mol^–1
100 δx1,3 (preferential solvation parameter by NMP) ([1]; x1=0.35): 5.27
D (derivative of Gibbs energy of transfer vs x1) ([1]; x1=0.35): –30.04 kJ·mol^–1
G1,3 (Kirkwood–Buff integral) ([1]; x1=0.35): –298.0 cm^3·mol^–1
G2,3 (Kirkwood–Buff integral) ([1]; x1=0.35): –527.4 cm^3·mol^–1
δx1,3 (preferential solvation parameter by NMP) ([1]; x1=0.40 (maximum)): 5.41 × 10^–2
100 δx1,3 (preferential solvation parameter by NMP) ([1]; x1=0.40): 5.41
D (derivative of Gibbs energy of transfer vs x1) ([1]; x1=0.40): –25.73 kJ·mol^–1
G1,3 (Kirkwood–Buff integral) ([1]; x1=0.40): –271.3 cm^3·mol^–1
G2,3 (Kirkwood–Buff integral) ([1]; x1=0.40): –517.0 cm^3·mol^–1
100 δx1,3 (preferential solvation parameter by NMP) ([1]; x1=0.45): 5.28
D (derivative of Gibbs energy of transfer vs x1) ([1]; x1=0.45): –21.85 kJ·mol^–1
G1,3 (Kirkwood–Buff integral) ([1]; x1=0.45): –250.7 cm^3·mol^–1
G2,3 (Kirkwood–Buff integral) ([1]; x1=0.45): –503.6 cm^3·mol^–1
100 δx1,3 (preferential solvation parameter by NMP) ([1]; x1=0.50): 4.96
D (derivative of Gibbs energy of transfer vs x1) ([1]; x1=0.50): –18.40 kJ·mol^–1
G1,3 (Kirkwood–Buff integral) ([1]; x1=0.50): –234.5 cm^3·mol^–1
G2,3 (Kirkwood–Buff integral) ([1]; x1=0.50): –487.7 cm^3·mol^–1
100 δx1,3 (preferential solvation parameter by NMP) ([1]; x1=0.55): 4.49
D (derivative of Gibbs energy of transfer vs x1) ([1]; x1=0.55): –15.39 kJ·mol^–1
G1,3 (Kirkwood–Buff integral) ([1]; x1=0.55): –221.7 cm^3·mol^–1
G2,3 (Kirkwood–Buff integral) ([1]; x1=0.55): –469.5 cm^3·mol^–1
100 δx1,3 (preferential solvation parameter by NMP) ([1]; x1=0.60): 3.93
D (derivative of Gibbs energy of transfer vs x1) ([1]; x1=0.60): –12.84 kJ·mol^–1
G1,3 (Kirkwood–Buff integral) ([1]; x1=0.60): –211.6 cm^3·mol^–1
G2,3 (Kirkwood–Buff integral) ([1]; x1=0.60): –449.4 cm^3·mol^–1
100 δx1,3 (preferential solvation parameter by NMP) ([1]; x1=0.65): 3.34
D (derivative of Gibbs energy of transfer vs x1) ([1]; x1=0.65): –10.75 kJ·mol^–1
G1,3 (Kirkwood–Buff integral) ([1]; x1=0.65): –203.7 cm^3·mol^–1
G2,3 (Kirkwood–Buff integral) ([1]; x1=0.65): –428.7 cm^3·mol^–1
100 δx1,3 (preferential solvation parameter by NMP) ([1]; x1=0.70): 2.76
D (derivative of Gibbs energy of transfer vs x1) ([1]; x1=0.70): –9.13 kJ·mol^–1
G1,3 (Kirkwood–Buff integral) ([1]; x1=0.70): –197.7 cm^3·mol^–1
G2,3 (Kirkwood–Buff integral) ([1]; x1=0.70): –409.5 cm^3·mol^–1
100 δx1,3 (preferential solvation parameter by NMP) ([1]; x1=0.75): 2.24
D (derivative of Gibbs energy of transfer vs x1) ([1]; x1=0.75): –7.99 kJ·mol^–1
G1,3 (Kirkwood–Buff integral) ([1]; x1=0.75): –193.3 cm^3·mol^–1
G2,3 (Kirkwood–Buff integral) ([1]; x1=0.75): –394.9 cm^3·mol^–1
100 δx1,3 (preferential solvation parameter by NMP) ([1]; x1=0.80): 1.81
D (derivative of Gibbs energy of transfer vs x1) ([1]; x1=0.80): –7.33 kJ·mol^–1
G1,3 (Kirkwood–Buff integral) ([1]; x1=0.80): –190.1 cm^3·mol^–1
G2,3 (Kirkwood–Buff integral) ([1]; x1=0.80): –388.5 cm^3·mol^–1
100 δx1,3 (preferential solvation parameter by NMP) ([1]; x1=0.85): 1.44
D (derivative of Gibbs energy of transfer vs x1) ([1]; x1=0.85): –7.18 kJ·mol^–1
G1,3 (Kirkwood–Buff integral) ([1]; x1=0.85): –187.8 cm^3·mol^–1
G2,3 (Kirkwood–Buff integral) ([1]; x1=0.85): –394.4 cm^3·mol^–1
100 δx1,3 (preferential solvation parameter by NMP) ([1]; x1=0.90): 1.10
D (derivative of Gibbs energy of transfer vs x1) ([1]; x1=0.90): –7.54 kJ·mol^–1
G1,3 (Kirkwood–Buff integral) ([1]; x1=0.90): –186.0 cm^3·mol^–1
G2,3 (Kirkwood–Buff integral) ([1]; x1=0.90): –417.8 cm^3·mol^–1
SMILES: Cc1cnc(NC(=O)C2=C(O)c3ccccc3S(=O)(=O)N2C)s1 [Meloxicam, 4-hydroxy-2-methyl-N-(5-methyl-2-thiazolyl)-2H-1,2-benzothiazine-3-carboxamide-1,1-dioxide]
Crystal form after saturation (XRD, FTIR) (Solid-phase analyses): did not suffer crystal polymorphic transitions or solvate formation
